# Results from patent US12220550B2, “Transdermal delivery device, methods of using and making the same” (BUDDHIST TZU CHI MEDICAL FOUNDATION, priority 2021, dated 2025).
# Experiment: In vitro drug release from drug-loaded MNs
# Format: physicochemical
# Conditions: from IPN hydrogel MNs, PBS pH 7.4, 37° C., 100 rpm, first 24 hours
# Description: The drug-loaded MNs were soaked in 10 mL of PBS solution (pH 7.4) and put in a shaking incubator at 37° C. and 100 rpm to simulate the real drug release environment. About 2.5 mL of the release medium was withdrawn and replenished with an equivalent volume of PBS every half hour for the first 4 hours. Similarly, the released medium was collected at the 5th, 6th, 8th, 12th, and 24th hour followed by every 24 h for 7 days. Then, the cumulative drug released was determined by measuring the UV-Vis absorbance of DOX and LPS at 485 nm and 256 nm, respectively, and then calculated using the standard calibration curve of the free drugs, as shown in FIGS. 14A and B.
# Drug release behavior of IPN hydrogel was examined. First, DOX and/or LPS were loaded into the hydrogel by simple mixing with IPN hydrogel pre-gel solution (0.5 mg DOX/MNs and 0.2 mg LPS/MNs) followed by casting MNs and sequential photo-ionic crosslinking to obtained drug loaded solid MNs arrays (DOX loaded MN, LPS loaded MN and LPS/DOX loaded MN). Then, drug loaded MNs were immersed in 10 mL PBS solution and kept in an orbital shaker incubator with a rotation of 100 rpm at 37° C.
row,Compound,cumulative drug release [%]
1,"COc1cccc2c1C(=O)c1c(O)c3c(c(O)c1C2=O)C[C@@](O)(C(=O)CO)C[C@@H]3O[C@H]1C[C@H](N)[C@H](O)[C@H](C)O1 [DOX, doxorubicin]",~66.1±7.4
2,lipopolysaccharide [LPS],~59.4±5.5
